According to article PMC6803640, “Oligomeric state, hydrodynamic properties and target recognition of human Calcium and Integrin Binding protein 2 (CIB2)” (Scientific Reports, 2019):
Where a SMILES comes first, the peptide text is derived from it.

Assays:
[1] = system: CIB2; experiment: Near-UV circular dichroism; assay type: physicochemical, human; details: 37 °C
Description: CIB2 tertiary structure was investigated by using a Jasco J-710 spectropolarimeter equipped with a Peltier type cell holder as previously described. Briefly: near-UV (250–320 nm) CD spectra of 20 μM of sole CIB2 or CIB2/α7B_M complexes (1:1 and 1:2 ratios) were collected in the presence of 500 μM EGTA and after sequential additions of 1 mM Mg^2+ and 2 mM free Ca^2+. A 1 cm quartz cuvette was used, temperature was set at 37 °C, integration time and data pitch were set to 4 s and 1 nm, respectively. Each spectrum represents the average of 5 accumulations. […]
Figure S4: Structural comparison of His-CIB2 (A) and CIB2 (B). Near-UV CD spectra (250-320 nm) of 20-30 µM CIB2 were collected at 37°C in a quartz cuvette with 1 cm length path. Sequential additions of 500 µM EGTA (black), 1 mM Mg2+ (blue) and 2 mM Ca2+ (red) were performed. Near-UV CD spectra of the buffer (20 mM HEPES pH 7.5, 150 mM KCl, 1 mM DTT) was considered as blank and subtracted. Each spectrum represents the mean of 5 accumulations. Data were normalized according to the protein concentration and the number of residues (Molar Residue Ellipticity, MRE).
Figure S5: Near-UV CD spectra of CIB2 in the presence of different stoichiometric ratios of alpha7B_M peptide. Near-UV CD spectra (250-320nm) of 20 μM CIB2 in the absence of peptide (black lines) and in the presence of two different protein/peptide ratios (1:1 blue lines; 1:2 red lines) collected at 37°C in the presence of 500 μM EGTA (A) and after sequential additions of 1 mM Mg2+ (B) and 2 mM free Ca2+ (C). The spectrum of alpha7B_M peptide in the absence of CIB2 is shown in dashed grey lines. […]

[2] = system: CIB2; details: fused with GFP and tdTomato; cited from earlier work
Description: Our previous work with untagged purified CIB2 also concluded that CIB2 is dimeric. We now provide new lines of evidence that allow us to reconsider some of the previous findings in the light of MS ...

Row | Molecule | near-UV CD, effect of peptide on apo-CIB2 ([1]; 20 μM CIB2, 500 μM EGTA, 1:1 and 2:1 peptide:protein) | near-UV CD, effect of peptide on cation-bound CIB2 ([1]; 20 μM CIB2, 1 mM Mg^2+ and co-presence of 2 mM Ca^2+, 1:1 and 2:1 peptide:protein) | near-UV CD, structure of isolated peptide ([1]; 500 μM EGTA, 1 mM Mg^2+, 2 mM Ca^2+) | near-UV CD, tryptophan region ([1]; incubation of CIB2 with peptide) | dimer formation [2]
1 | CSCC[C@H](NC(=O)[C@H](CCCCN)NC(=O)[C@H](Cc1c[nH]c2ccccc12)NC(=O)[C@H](CC(C)C)NC(=O)[C@H](CC(C)C)NC(=O)[C@H](CC(C)C)NC(C)=O)C(=O)NCC(=O)N[C@@H](Cc1ccccc1)C(=O)N[C@@H](Cc1ccccc1)C(=O)N[C@@H](CCCCN)C(=O)N[C@@H](CCCNC(=N)N)C(=O)N[C@@H](C)C(=O)N[C@@H](CCCCN)C(=O)N[C@@H](Cc1c[nH]cn1)C(=O)N1CCC[C@H]1C(=O)N[C@@H](CCC(=O)O)C(N)=O [α7B_M] (Ac-LLLWKMGFFKRAKHPE-NH2) | finer spectrum in the phenylalanine and tyrosine bands | the intensity of the resulting spectrum was lower compared to that of CIB2 without the peptide | unfolded in all the tested cases | no clear signal was visible | 
2 | CIB2: Recombinant human CIB2, Ca^2+ and Mg^2+-binding protein (protein, left off: His tag, end not stated, cleaved) MGNKQTIFTEEQLDNYQDCTFFNKKDILKLHSRFYELAPNLVPMDYRKSPIVHVPMSLIIQMPELRENPFKERIVAAFSEDGEGNLTFNDFVDMFSVLCESAPRELKANYAFKIYDFNTDNFICKEDLELTLARLTKSELDEEEVVLVCDKVIEEADLDGDGKLGFADFEDMIAKAPDFLSTFHIRI |  |  |  |  | found to form dimers
